Experimental data as given in ChEMBL document CHEMBL1201862, “PubChem BioAssay data set” (2004).
Calls of active or inactive are those of the source. Unless noted, the calls are words filed in the database; no cut-off is given here.

How the values were obtained:
[1] = target: Latent membrane protein 1 (Human herpesvirus 4 (strain B95-8), UniProt P03230); test: TES1-eGFP NF-kB reporter inhibition versus Tet-On dsRED, dose response, selectivity assay for LMP1 NF-kB inhibitor project, imaging, HEK293T, dual-color eGFP/dsRED, cherry-picks (AID 588398); assay type: functional, cell-based
HEK293 [2] = test: inhibitors of LMP1-driven NF-kB reporter, dose response, cell-based, HEK293, luciferase, cherry-pick (AID 588343); assay type: functional; details: Homo sapiens
[3] = target: Benomyl/methotrexate resistance protein (Candida albicans, UniProt P28873); test: CaMdr1 efflux pump inhibitor potency, dose response, singleplex, Cherry Pick2 set (AID 623992); assay type: functional; details: read-out: EC50_MICROM
[4] = target: Multidrug resistance protein CDR1 (Candida albicans, UniProt P43071); test: CaCdr1 efflux pump inhibitor potency, dose response, singleplex, Cherry Pick2 set (AID 623996); assay type: functional; details: read-out: EC50_MICROM
[5] = target: T1, Ubiquitin-conjugating enzyme E2 N (Homo sapiens, UniProt P61088); assay type: functional;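 further: Dose-response confirmation in a TR-FRET assay detecting UBC13-driven polyubiquitin chain formation, inhibition measured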
T1 sequence (P61088 whole entry): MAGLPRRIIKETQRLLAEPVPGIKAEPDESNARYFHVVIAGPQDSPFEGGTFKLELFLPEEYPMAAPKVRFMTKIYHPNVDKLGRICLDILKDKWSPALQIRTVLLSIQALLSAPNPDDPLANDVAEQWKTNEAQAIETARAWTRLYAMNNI

[6] = target: T2, Multidrug resistance protein CDR2 (Candida albicans (strain SC5314 / ATCC MYA-2876) (Yeast), UniProt P78595); test: CaCDR2 efflux pump inhibitors in yeast, dose response, S. cerevisiae AD1-8u, singleplex, Cherry Pick1 hits (AID 588604); assay type: functional
T2 sequence (P78595 whole entry): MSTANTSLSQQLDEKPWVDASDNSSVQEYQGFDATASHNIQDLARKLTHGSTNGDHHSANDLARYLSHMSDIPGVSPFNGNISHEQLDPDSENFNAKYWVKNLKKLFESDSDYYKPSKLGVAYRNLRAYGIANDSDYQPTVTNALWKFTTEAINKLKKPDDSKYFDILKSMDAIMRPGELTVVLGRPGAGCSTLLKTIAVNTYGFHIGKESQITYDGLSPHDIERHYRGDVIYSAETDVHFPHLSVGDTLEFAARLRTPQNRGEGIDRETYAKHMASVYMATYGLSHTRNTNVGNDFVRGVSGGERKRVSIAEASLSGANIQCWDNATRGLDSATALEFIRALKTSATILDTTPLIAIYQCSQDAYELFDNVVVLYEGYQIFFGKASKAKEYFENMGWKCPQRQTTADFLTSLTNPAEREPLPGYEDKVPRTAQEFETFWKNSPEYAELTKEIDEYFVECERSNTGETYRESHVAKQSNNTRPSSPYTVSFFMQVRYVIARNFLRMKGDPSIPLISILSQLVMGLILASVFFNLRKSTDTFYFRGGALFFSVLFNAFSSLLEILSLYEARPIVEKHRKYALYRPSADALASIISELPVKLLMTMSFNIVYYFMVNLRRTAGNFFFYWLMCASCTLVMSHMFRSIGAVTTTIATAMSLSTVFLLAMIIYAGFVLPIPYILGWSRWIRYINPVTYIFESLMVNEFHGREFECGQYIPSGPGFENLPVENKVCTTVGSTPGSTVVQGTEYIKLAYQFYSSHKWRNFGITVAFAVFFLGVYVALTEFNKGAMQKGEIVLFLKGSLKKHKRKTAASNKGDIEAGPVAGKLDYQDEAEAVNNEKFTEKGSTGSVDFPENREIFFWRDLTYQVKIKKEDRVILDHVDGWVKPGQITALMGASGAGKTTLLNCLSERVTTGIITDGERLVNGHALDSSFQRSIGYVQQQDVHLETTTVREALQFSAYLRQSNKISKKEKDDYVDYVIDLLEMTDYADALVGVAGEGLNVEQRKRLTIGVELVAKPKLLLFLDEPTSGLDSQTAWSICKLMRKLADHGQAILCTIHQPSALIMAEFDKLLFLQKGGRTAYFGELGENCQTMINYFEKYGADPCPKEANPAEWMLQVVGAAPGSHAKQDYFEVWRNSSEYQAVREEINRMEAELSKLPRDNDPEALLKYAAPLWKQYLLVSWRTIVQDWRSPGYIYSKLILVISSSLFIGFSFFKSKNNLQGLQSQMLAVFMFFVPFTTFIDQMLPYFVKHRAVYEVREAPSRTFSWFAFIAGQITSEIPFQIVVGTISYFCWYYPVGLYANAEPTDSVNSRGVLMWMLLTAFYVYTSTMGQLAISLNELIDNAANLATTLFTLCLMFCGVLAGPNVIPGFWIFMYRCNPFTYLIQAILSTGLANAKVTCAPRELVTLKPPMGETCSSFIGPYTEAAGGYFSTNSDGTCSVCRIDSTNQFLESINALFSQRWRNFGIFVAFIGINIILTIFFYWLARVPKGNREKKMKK

[7] = Luminescence Cell-Based Dose Retest to Confirm Inhibitors of Cancer Stem Cells. [Related pubchem assays (depositor defined):AID2717, AID2721]; assay type: functional; details: Homo sapiens
[8] = target: T2, Multidrug resistance protein CDR2; test: CaCDR2 efflux pump inhibitors in yeast, dose response, S. cerevisiae AD1-8u, singleplex, Cherry Pick2 set (AID 623994); assay type: functional; details: read-out: EC50_MICROM
Vero = Vero cell cytotoxicity, cytotoxicity control for flavivirus capping enzyme inhibitors (AID 588742); assay type: functional; details: Chlorocebus sabaeus
[9] = tested on: Streptococcus sp. 'group A'; test: growth inhibition of control SK(-) GAS strain, dose response, counter-screen for streptokinase expression inhibitor project, luminescence, kanamycin, BacTiterGlo, confirmation (AID 1900); assay type: functional, organism-based
HEK293 [10] = test: NOD1 signaling inhibitors, primary screen, cell-based, luminescence, uHTS (AID 1578); assay type: functional; details: Homo sapiens
HEK293 [11] = test: NOD2 signaling inhibitors in MDP-stimulated cells, cell-based, uHTS, luminescence (AID 2001); assay type: functional; details: Homo sapiens
HEK293 [12] = test: cells; assay type: functional, cell-based; details: Homo sapiens
HEK293 [13] = test: cells; assay type: functional, cell-based; details: Homo sapiens; remark: listed apart in the source
Streptokinase A = target: T3, Streptokinase A (Streptococcus pyogenes serotype M1, UniProt P10520); test: S. pyogenes streptokinase expression inhibitors, potency, dose response, plasminogen activation absorbance, OD405 (AID 1914); assay type: functional, Streptococcus pyogenes M1 GAS;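 further: secreted streptokinase activity via plasminogen activation per viability signal from cell pellet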
T3 sequence (P10520 whole entry): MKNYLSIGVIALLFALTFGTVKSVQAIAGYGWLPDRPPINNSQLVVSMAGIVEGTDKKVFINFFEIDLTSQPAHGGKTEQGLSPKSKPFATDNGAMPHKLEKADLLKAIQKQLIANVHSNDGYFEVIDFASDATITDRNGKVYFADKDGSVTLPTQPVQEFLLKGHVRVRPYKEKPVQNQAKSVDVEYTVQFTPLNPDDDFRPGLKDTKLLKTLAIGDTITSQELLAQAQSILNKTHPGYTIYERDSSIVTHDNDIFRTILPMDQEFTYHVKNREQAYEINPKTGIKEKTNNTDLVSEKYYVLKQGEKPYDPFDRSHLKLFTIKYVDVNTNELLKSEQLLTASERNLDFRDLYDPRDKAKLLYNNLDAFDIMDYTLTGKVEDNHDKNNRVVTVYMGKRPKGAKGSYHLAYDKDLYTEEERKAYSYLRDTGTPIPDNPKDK

[14] = HIV-1 Env-mediated cell fusion inhibitors, dose response, CCR5-tropic Env (AID 2279); assay type: functional
Genome polyprotein = Genome polyprotein (dengue virus type 2, UniProt P29990); test: Dengue-2 NS5 methyltransferase inhibitors, primary screen, biochemical, confirmation dose response (AID 588689); assay type: functional
Cysteine protease ATG4B = Cysteine protease ATG4B (Homo sapiens, UniProt Q9Y4P1); assay type: functional;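 further: Fluorescence-based dose-response confirmation assay measuring inhibition of ATG4B activity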
Sequence of Cysteine protease ATG4B (Q9Y4P1 whole entry): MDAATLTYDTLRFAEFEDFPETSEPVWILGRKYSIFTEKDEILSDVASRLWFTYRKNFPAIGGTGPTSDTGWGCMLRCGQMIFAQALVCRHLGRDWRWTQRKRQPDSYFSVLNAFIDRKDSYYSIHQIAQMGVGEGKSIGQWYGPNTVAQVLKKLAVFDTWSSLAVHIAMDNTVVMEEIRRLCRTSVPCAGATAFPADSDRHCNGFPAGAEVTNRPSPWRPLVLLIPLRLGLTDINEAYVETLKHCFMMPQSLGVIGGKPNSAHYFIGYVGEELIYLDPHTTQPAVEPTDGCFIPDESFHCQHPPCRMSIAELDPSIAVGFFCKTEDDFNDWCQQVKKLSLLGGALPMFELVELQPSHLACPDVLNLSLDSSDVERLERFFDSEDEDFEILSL

Streptococcus = test: Group A Streptococcus viability loss, dose response, counter-screen for streptokinase expression inhibitor project, luminescence, BacTiterGlo (AID 1915); assay type: functional, organism-based;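 further: potency for reduction of bacterial viability or growth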
Phospholipase A2 = Phospholipase A2 (Homo sapiens, UniProt P04054); assay type: functional;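 further: confirmatory dose-response counterscreen on phospholipase A2, testing hits that came from an ultra-high-throughput screen for ATG4B inhibitors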
Wee1-like protein kinase = Wee1-like protein kinase (Homo sapiens, UniProt P30291); test: Navigating the Kinome. Panel member name: WEE1; assay type: functional
Sequence of Wee1-like protein kinase (P30291 whole entry): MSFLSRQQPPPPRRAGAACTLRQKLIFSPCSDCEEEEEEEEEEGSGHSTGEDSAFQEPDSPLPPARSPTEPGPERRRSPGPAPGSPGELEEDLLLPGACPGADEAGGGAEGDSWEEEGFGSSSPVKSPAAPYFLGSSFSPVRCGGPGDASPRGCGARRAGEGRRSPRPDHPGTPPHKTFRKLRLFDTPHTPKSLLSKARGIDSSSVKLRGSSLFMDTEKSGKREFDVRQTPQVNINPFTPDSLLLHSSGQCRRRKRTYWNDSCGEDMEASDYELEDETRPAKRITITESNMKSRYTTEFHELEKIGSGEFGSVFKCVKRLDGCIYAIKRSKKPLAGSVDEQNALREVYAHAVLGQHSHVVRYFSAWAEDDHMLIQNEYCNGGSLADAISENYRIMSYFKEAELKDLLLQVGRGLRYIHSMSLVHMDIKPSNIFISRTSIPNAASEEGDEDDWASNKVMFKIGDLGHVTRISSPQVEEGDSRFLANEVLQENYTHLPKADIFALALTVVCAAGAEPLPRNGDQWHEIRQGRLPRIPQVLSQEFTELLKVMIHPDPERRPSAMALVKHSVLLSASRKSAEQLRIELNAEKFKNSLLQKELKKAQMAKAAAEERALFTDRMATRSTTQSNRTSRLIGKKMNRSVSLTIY

[15] = target: Cell division cycle 7-related protein kinase (Homo sapiens, UniProt O00311); assay type: functional;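 further: value obtained from a kinome-wide kinase panel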
Sequence of Cell division cycle 7-related protein kinase (O00311 whole entry): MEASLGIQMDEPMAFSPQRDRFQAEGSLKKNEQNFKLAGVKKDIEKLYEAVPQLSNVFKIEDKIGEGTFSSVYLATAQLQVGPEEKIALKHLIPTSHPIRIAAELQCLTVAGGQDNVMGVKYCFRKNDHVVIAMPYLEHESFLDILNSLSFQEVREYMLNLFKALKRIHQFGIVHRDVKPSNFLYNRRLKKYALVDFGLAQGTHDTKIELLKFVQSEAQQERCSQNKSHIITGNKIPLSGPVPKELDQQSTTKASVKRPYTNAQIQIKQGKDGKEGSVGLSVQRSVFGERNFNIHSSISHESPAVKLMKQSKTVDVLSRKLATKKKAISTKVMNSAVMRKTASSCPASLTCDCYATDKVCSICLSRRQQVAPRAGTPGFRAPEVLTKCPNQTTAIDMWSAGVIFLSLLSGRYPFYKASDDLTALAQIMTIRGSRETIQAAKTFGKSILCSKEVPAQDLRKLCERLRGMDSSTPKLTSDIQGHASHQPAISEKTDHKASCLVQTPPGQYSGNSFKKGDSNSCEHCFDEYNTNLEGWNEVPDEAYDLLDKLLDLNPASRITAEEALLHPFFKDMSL

[16] = target: Sphingosine 1-phosphate receptor 2 (Homo sapiens, UniProt O95136); test: S1P2 receptor agonists, human, late-stage follow-up, counter-screen for S1P4 agonist project, cell-based, fluorescence, set 2 (AID 504873); assay type: functional
Sequence of Sphingosine 1-phosphate receptor 2 (O95136 whole entry): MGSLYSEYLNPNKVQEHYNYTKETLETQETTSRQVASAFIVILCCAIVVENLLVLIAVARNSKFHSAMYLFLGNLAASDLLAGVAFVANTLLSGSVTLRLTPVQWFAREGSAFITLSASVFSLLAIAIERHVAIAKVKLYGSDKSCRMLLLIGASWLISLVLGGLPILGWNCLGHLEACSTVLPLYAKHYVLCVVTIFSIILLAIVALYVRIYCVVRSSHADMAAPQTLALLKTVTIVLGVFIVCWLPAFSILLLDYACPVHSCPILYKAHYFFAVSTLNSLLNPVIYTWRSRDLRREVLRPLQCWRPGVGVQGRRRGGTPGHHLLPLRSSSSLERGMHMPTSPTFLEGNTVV

[17] = target: Sphingosine 1-phosphate receptor 1 (Homo sapiens, UniProt P21453); test: Late-stage fluorescence-based dose-response cell-based counterscreen assay to identify agonists of the Sphingosine 1-Phosphate Receptor 4 (S1P4): Sphingosine 1-Phosphate Receptor 1 (S1P1) agonist assay Set 2.; assay type: functional
Sequence of Sphingosine 1-phosphate receptor 1 (P21453 whole entry): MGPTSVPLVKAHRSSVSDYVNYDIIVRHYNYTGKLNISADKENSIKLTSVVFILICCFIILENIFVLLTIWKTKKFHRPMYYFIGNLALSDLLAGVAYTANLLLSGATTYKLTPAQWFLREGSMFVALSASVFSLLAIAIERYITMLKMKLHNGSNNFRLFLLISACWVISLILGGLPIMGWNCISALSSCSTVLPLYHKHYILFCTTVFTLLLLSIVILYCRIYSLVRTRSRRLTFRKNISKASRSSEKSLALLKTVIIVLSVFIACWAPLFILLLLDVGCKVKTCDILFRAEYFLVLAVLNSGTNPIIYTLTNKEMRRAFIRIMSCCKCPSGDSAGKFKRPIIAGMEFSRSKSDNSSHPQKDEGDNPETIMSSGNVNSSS

[18] = target: Sphingosine 1-phosphate receptor 5 (Homo sapiens, UniProt Q9H228); test: S1P5 receptor agonists, human, late-stage follow-up, counter-screen for S1P4 agonist project, cell-based, fluorescence, set 2 (AID 504867); assay type: functional
Sequence of Sphingosine 1-phosphate receptor 5 (Q9H228 whole entry): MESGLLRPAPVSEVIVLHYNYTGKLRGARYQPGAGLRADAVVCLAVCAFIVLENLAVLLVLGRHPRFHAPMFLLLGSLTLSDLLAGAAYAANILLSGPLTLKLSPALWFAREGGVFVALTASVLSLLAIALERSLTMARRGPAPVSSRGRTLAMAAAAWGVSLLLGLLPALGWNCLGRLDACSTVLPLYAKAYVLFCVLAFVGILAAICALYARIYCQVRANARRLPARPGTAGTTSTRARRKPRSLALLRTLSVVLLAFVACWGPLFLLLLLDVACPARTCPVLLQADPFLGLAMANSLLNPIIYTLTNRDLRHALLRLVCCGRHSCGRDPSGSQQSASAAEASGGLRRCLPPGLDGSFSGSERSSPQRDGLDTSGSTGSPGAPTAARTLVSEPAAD

[19] = target: Sphingosine 1-phosphate receptor 3 (Homo sapiens, UniProt Q99500); test: Late-stage fluorescence-based dose-response cell-based counterscreen assay to identify agonists of the Sphingosine 1-Phosphate Receptor 4 (S1P4): Sphingosine 1-Phosphate Receptor 3 (S1P3) agonist assay Set 2.; assay type: functional
Sequence of Sphingosine 1-phosphate receptor 3 (Q99500 whole entry): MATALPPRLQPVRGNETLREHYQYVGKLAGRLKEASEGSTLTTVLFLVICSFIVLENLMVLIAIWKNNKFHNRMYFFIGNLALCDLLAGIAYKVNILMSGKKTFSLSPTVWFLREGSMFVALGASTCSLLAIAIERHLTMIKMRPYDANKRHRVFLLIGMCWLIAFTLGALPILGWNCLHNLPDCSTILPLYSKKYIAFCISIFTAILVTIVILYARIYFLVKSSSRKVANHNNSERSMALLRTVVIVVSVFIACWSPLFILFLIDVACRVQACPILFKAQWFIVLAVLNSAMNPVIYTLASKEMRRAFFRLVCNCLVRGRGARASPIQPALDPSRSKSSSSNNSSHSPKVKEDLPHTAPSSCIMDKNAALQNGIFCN

INS1 [20] = test: inhibitors of cytokine-induced nitrite release, dose response, cell-based, Griess absorbance, INS-1E, dry powder, set 2 (AID 488868); assay type: functional; details: Rattus norvegicus
INS1 [21] = test: caspase-3/7 inhibition in cytokine-treated INS-1E, dose response, beta-cell apoptosis inhibitor project, cell-based, caspase luminescence, dry powder (AID 488848); assay type: functional; details: Rattus norvegicus
[22] = target: DNA dC->dU-editing enzyme APOBEC-3G (Homo sapiens, UniProt Q9HC16); test: APOBEC3G deaminase inhibitors, SAR follow-up, biochemical, fluorescence, single-stranded DNA substrate (AID 602136); assay type: functional; details: read-out: IC50_Mean
Sequence of DNA dC->dU-editing enzyme APOBEC-3G (Q9HC16 whole entry): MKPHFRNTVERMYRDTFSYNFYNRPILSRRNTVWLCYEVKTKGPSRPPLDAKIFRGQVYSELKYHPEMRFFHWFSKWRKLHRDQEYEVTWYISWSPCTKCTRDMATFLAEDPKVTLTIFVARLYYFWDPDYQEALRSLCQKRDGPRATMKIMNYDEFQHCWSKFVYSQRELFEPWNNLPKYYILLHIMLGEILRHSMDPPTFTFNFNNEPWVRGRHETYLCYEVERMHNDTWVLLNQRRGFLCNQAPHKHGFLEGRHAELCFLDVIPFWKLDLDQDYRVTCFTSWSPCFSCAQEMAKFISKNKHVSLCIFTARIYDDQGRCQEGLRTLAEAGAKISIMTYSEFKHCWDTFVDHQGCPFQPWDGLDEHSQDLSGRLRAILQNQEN

[23] = target: DNA dC->dU-editing enzyme APOBEC-3A (Homo sapiens, UniProt P31941); test: SAR analysis of small molecule inhibitors of APOBEC3A DNA Deaminase via a fluorescence-based single-stranded DNA deaminase assay.; assay type: functional; details: read-out: IC50_Mean

**Q.** Which AC50 [1] does the source give for `O=C(OC1CCN(CCCl)CC1)C(c1ccccc1)c1ccccc1` here?
**A.** 24.2 µM (active)

**Q.** And the AC50 (HEK293 [2])?
**A.** 24.3 µM (active)

**Q.** For `COc1ccc2sc(-c3ccccc3OC)c(-c3ccc(OCCN4CCCC4)cc3)c2c1`, which EC50 [3] is on record?
**A.** 50.2 µM (active)

**Q.** What about the EC50 [4] of the same molecule?
**A.** 23.6 µM (active)

**Q.** What about the IC50 [5] of the same molecule?
**A.** > 20 µM (inactive)

**Q.** What about the EC50 [6] of the same molecule?
**A.** 0.87 µM (active)

**Q.** What about the AC50 [7] of the same molecule?
**A.** 5.62 µM (active)

**Q.** What about the EC50 [8] of the same molecule?
**A.** 0.958 µM (active)

**Q.** With `O=C(O)CCn1cc(/C=C/C(=O)c2ccc(Cl)cc2)c(-c2cccc(Br)c2)n1` as the molecule, how does the CC50 (Vero) read?
**A.** > 40 µM (active)

**Q.** What about the EC50 [9] of the same molecule?
**A.** 4.35 µM (active)

**Q.** What about the EC50 (HEK293 [10]) of the same molecule?
**A.** 6.52 µM (active)

**Q.** And the IC50 (HEK293 [11])?
**A.** 4.06 µM (active)

**Q.** What about the IC50 (HEK293 [12]) of the same molecule?
**A.** 17.9 µM (active)

**Q.** And the IC50 (HEK293 [13])?
**A.** 10.6 µM (active)

**Q.** What about the EC50 (Streptokinase A) of the same molecule?
**A.** 0.874 µM (active)

**Q.** What about the IC50 [14] of the same molecule?
**A.** 27.8 µM (active)

**Q.** And the IC50 (Genome polyprotein)?
**A.** 52.4 µM (active)

**Q.** And the IC50 (Cysteine protease ATG4B)?
**A.** 13.5 µM (active)

**Q.** And the EC50 (Streptococcus)?
**A.** 6.69 µM (active)

**Q.** What about the IC50 (Phospholipase A2) of the same molecule?
**A.** 8.65 µM (active)

**Q.** Which Ki (Wee1-like protein kinase) does the source give for `Fc1ccc(Nc2ncnc(Nc3ccc4cn[nH]c4c3)n2)cc1` here?
**A.** > 3.16 µM (inactive)

**Q.** What about the Ki [15] of the same molecule?
**A.** 0.0501 µM (active)

**Q.** What does the source list for `CC/N=C1\S/C(=C\c2cc(C)n(-c3ccccc3F)c2C)C(=O)N1CC`?
**A.** EC50 [16]: > 25 µM (inactive); EC50 [17]: > 25 µM (inactive); EC50 [18]: > 25 µM (inactive); EC50 [19]: > 25 µM (inactive)

**Q.** Which AC50 (INS1 [20]) does the source give for `COc1ccc(S(=O)(=O)N(C)C[C@@H]2Oc3c(NC(=O)c4cccc5ccccc45)cccc3C(=O)N([C@@H](C)CO)C[C@H]2C)cc1` here?
**A.** 84.8 µM (active)

**Q.** What about the AC50 (INS1 [21]) of the same molecule?
**A.** > 195 µM (inactive)

**Q.** Which results are given for `CCOc1nc(Nc2ccccc2)nc(Nc2ccc(-c3nc4ccccc4o3)cc2)n1`?
**A.** IC50 [22]: > 99 µM (inactive); IC50 [23]: > 99 µM (inactive)
